Results from patent US20020026053A1, “Novel 3-(substituted) -2- indolinones compounds and use thereof as inhibitors of protein kinase activity” (priority 1997, published 2002).
Values joined by “and” are separate entries in the source; they are usually repeats but may differ in a detail not shown here. Identical values can stand only once.

Biological target: T1, Met receptor (EGFR/Met chimeric cells, EMR) (Homo sapiens, UniProt P08581)
T1 construct: expressed in transfected cells; the other entry of the earlier key: EGFR (P00533, Epidermal growth factor receptor)
Test: Met Autophosphorylation Assay
Type: biochemical
Description: Met Autophosphorylation Assay
This assay determines Met tyrosine kinase activity by analyzing Met protein tyrosine kinase levels on the Met receptor.
a. HNTG (5× stock solution): Dissolve 23.83 g HEPES and 43.83 g NaCl in about 350 ml dH2O. Adjust pH to 7.2 with HCl or NaOH, add 500 ml glycerol and 10 ml Triton X-100, mix, add dH2O to 1 L total volume. To make 1 L of 1× working solution add 200 ml 5× stock solution to 800 ml dH2O, check and adjust pH as necessary, store at 4° C.
b. PBS (Dulbecco's Phosphate-Buffered Saline), Gibco Cat. # 450-1300EB (1× solution).
c. Blocking Buffer: in 500 ml dH2O place 100 g BSA, 12.1 g Tris-pH7.5, 58.44 g NaCl and 10 ml Tween-20, dilute to 1 L total volume.
d. Kinase Buffer: To 500 ml dH2O add 12.1 g TRIS (pH 7.2), 58.4 g NaCl, 40.7 g MgCl2 and 1.9 g EGTA; bring to 1 L total volume with dH2O.
e. PMSF (Phenylmethylsulfonyl fluoride), Sigma Cat. # P-7626, to 435.5 mg, add 100% ethanol to 25 ml total volume, vortex.
f. ATP (Bacterial Source), Sigma Cat. # A-7699, store powder at −20° C.; to make up solution for use, dissolve 3.31 mg in 1 ml dH2O.
g. RC-20H HRPO Conjugated Anti-Phosphotyrosine, Transduction Laboratories Cat. # E120H.
h. Pierce 1-Step Turbo™ B-ELISA (3,3′,5,5′-tetramethylbenzidine, Pierce Cat. # 34022.
i. H2SO4, add 1 ml conc.(18 N) to 35 ml dH2O.
j. TRIS HCL, Fischer Cat. # BP152-5; to 121.14 g of material, add 600 ml MilliQ H2O, adjust pH to 7.5 (or 7.2) with HCl, bring volume to 1 L with MilliQ H2O.
k. NaCl, Fischer Cat. # S271-10, make up 5M solution.
m. Na3VO4, Fischer Cat. # S454-50, to 1.8 g material add 80 ml MilliQ H2O, adjust pH to 10.0 with HCl or NaOH, boil in microwave, cool, check pH, repeat procedure until pH stable at 10.0, add MilliQ H2O to 100 ml total volume, make 1 ml aliquots and store at −80° C.
n. MgCl2, Fischer Cat. # M33-500, make up 1M solution.
o. HEPES, Fischer Cat. # BP310-500, to 200 ml MilliQ H2O, add 59.6 g material, adjust pH to 7.5, bring volume to 250 ml total, sterile filter.
p. Albumin, Bovine (BSA), Sigma Cat. # A-4503, to 30 grams material add sterile distilled water to make total volume of 300 ml, store at 4° C.
q. TBST Buffer: to approx. 900 ml dH2O in a 1 L graduated cylinder add 6.057 g TRIS and 8.766 g NaCl, when dissolved, adjust pH to 7.2 with HCl, add 1.0 ml Triton X-100 and bring to 1 L total volume with dH2O.
r. Goat Affinity purified antibody Rabbit IgG (whole molecule), Cappel Cat. # 55641.
s. Anti h-Met (C-28) rabbit polyclonal IgG antibody, Santa Cruz Chemical Cat. # SC-161.
t. Transiently Transfected EGFR/Met chimeric cells (EMR) (Komada, et al., Oncogene, 8:2381-2390 (1993).
u. Sodium Carbonate Buffer, ([…], Fischer Cat. # S495) to 10.6 g material add 800 ml MilliQ H2O, when dissolved adjust pH to 9.6 with NaOH, bring up to 1 L total volume with MilliQ H2O, filter, store at 4° C.
All of the following steps are conducted at room temperature unless it is specifically indicated otherwise. All ELISA plate washing is by rinsing 4× with TBST.
This procedure can be performed the night before or immediately prior to the start of receptor capture.
1. Quick thaw lysates in a 37° C. waterbath with a swirling motion until the last crystals disappear.
2. Lyse cell pellet with 1× HNTG containing 1 mM PMSF. Use 3 ml of HNTG per 15 cm dish of cells. Add ½ the calculated HNTG volume, vortex the tube for 1 min., add the remaining amount of HNTG, vortex for another min.
3. Balance tubes, centrifuge at 10,000× g for 10 min at 4° C.
4. Pool supernatants, remove an aliquot for protein determination.
5. Quick freeze pooled sample in dry ice/ethanol bath. This step is performed regardless of whether lysate will be stored overnight or used immediately following protein determination.
6. Perform protein determination using standard bicinchoninic acid (BCA) method (BCA Assay Reagent Kit from Pierce Chemical Cat. # 23225).
1. Coat Corning 96 well ELISA plates with 5 μg per well Goat anti-Rabbit antibody in Carbonate Buffer for a total well volume of 50 μl. Store overnight at 4° C. […]

T1 sequence (P08581 with tags, fused parts or gaps): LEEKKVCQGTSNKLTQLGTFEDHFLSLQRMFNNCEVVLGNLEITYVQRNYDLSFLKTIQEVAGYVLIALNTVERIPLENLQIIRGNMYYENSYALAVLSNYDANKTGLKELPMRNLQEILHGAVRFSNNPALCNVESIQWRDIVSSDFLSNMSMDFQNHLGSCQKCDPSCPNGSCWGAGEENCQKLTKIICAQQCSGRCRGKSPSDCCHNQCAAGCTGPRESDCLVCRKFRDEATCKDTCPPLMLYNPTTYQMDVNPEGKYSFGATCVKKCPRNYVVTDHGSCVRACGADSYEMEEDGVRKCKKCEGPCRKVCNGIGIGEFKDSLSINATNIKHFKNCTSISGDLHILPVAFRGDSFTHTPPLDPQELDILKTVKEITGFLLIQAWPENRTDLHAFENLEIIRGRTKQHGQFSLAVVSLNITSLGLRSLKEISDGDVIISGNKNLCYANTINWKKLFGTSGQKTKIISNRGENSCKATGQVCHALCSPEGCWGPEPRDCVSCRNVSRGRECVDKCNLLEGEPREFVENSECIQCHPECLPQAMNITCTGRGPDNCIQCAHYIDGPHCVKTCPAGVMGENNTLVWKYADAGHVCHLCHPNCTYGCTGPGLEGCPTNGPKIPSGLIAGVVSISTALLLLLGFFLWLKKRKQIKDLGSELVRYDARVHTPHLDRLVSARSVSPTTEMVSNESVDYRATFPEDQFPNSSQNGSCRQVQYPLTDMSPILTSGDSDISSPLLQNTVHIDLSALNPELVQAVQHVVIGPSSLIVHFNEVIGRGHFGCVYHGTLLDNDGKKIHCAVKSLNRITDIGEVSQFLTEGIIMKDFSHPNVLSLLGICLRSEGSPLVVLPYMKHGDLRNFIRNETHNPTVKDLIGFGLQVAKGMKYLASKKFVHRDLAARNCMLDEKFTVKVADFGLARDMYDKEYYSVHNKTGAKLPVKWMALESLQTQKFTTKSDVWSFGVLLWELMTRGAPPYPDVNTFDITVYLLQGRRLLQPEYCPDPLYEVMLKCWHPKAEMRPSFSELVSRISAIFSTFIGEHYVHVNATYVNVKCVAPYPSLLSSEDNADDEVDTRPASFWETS

SMILES	Met Kinase % Inhibition (P.130)
Cc1c(Br)cc(Br)c2c1C(=Cc1ccc(F)cc1)C(=O)N2 [10717/H05]	16.3%
Cc1c(Br)cc(Br)c2c1C(=Cc1c[nH]c3ccccc13)C(=O)N2 [10717/H06]	30.5%
Cc1ccc(C=C2C(=O)Nc3c(Br)cc(Br)c(C)c32)s1 [10717/H07]	9.1%
Cc1c(Br)cc(Br)c2c1C(=Cc1ccc(Br)cc1)C(=O)N2 [10717/H08]	23.0%
Cc1c(Br)cc(Br)c2c1C(=Cc1ccc[nH]1)C(=O)N2 [10717/H09]	8.8%
COc1cccc(O)c1C=C1C(=O)Nc2c(Br)cc(Br)c(C)c21 [10717/H10]	52.3%
Cc1[nH]c(C=C2C(=O)Nc3c(Br)cc(Br)c(C)c32)c(Br)c1Br [10717/H11]	58.2%
Cc1c(Br)cc(Br)c2c1C(=Cc1ccc(Br)o1)C(=O)N2 [10726/H05]	80.2%
Cc1cn(C)cc1C=C1C(=O)Nc2c(Br)cc(Br)c(C)c21 [10726/H06]	35.1%
Cc1c(Br)cc(Br)c2c1C(=Cc1cc(O)c3c(c1O)CCCC3)C(=O)N2 [10726/H07]	80.9%
Cc1c(Br)cc(Br)c2c1C(=C1C(=O)Nc3ccc(F)cc31)C(=O)N2 [10726/H08]	71.2%
Cc1c(Br)cc(Br)c2c1C(=C1C(=O)Nc3ccccc31)C(=O)N2 [10726/H09]	68.1%
CCc1ccc(C=C2C(=O)Nc3c(Br)cc(Br)c(C)c32)s1 [10726/H10]	45.7%
COc1ccc(C=C2C(=O)Nc3c(Br)cc(Br)c(C)c32)cc1 [10726/H11]	40.8%
CCN(CC)c1ccc(C=C2C(=O)Nc3c(Br)cc(Br)c(C)c32)cc1 [10727/H02]	55.5%
CCc1cc(CC)c(C=C2C(=O)Nc3c(Br)cc(Br)c(C)c32)[nH]1 [10727/H03]	49.2%
Cc1c(Br)cc(Br)c2c1C(=Cc1cc(Cl)cc(Br)c1O)C(=O)N2 [10727/H04]	81.7%
Cc1c(Br)cc(Br)c2c1C(=Cc1ccccc1Sc1ccc(Cl)cc1)C(=O)N2 [10727/H05]	20.6%
Cc1c(Br)cc(Br)c2c1C(=Cc1cc3c(cc1Cl)OCO3)C(=O)N2 [10727/H06]	5.2%
Cc1c(Br)cc(Br)c2c1C(=Cc1coc3ccccc3c1=O)C(=O)N2 [10727/H07]	26.8%
Cc1c(Br)cc(Br)c2c1C(=Cc1cccc(C#N)c1)C(=O)N2 [10727/H08]	12.3%
Cc1c(Br)cc(Br)c2c1C(=Cc1ccc(C#N)cc1)C(=O)N2 [10727/H09]	31.1%
Cc1c(Br)cc(Br)c2c1C(=Cc1cc(O)ccc1O)C(=O)N2 [10727/H10]	89.7%
COc1cccc(C=C2C(=O)Nc3c(Br)cc(Br)c(C)c32)c1OC [10727/H11]	17.9%
COc1ccc(OC)c(C=C2C(=O)Nc3c(Br)cc(Br)c(C)c32)c1 [10728/H02]	25.8%
COc1cccc(OC)c1C=C1C(=O)Nc2c(Br)cc(Br)c(C)c21 [10728/H03]	15.6%
COc1cc(C=C2C(=O)Nc3c(Br)cc(Br)c(C)c32)cc(OC)c1 [10728/H04]	32.9%

SMILES	Met Kinase % Inhibition (P.130)
COc1cc(N(C)C)ccc1C=C1C(=O)Nc2c(Br)cc(Br)c(C)c21 [10728/H05]	41.2% and 33.9%
Cc1c(Br)cc(Br)c2c1C(=Cc1ccc3c(c1)Cc1ccccc1-3)C(=O)N2 [10728/H06]	28.5%
Cc1c(Br)cc(Br)c2c1C(=Cc1cccc(C(F)(F)F)c1F)C(=O)N2 [10728/H07]	45.8%
Cc1c(Br)cc(Br)c2c1C(=Cc1c(F)cccc1C(F)(F)F)C(=O)N2 [10728/H09]	30.5%
Cc1c(Br)cc(Br)c2c1C(=Cc1ccccc1OCC(=O)O)C(=O)N2 [10728/H10]	65.2%
COc1cc(C=C2C(=O)Nc3c(Br)cc(Br)c(C)c32)cc2c1OCO2 [10728/H11]	8.0%
COc1ccc2ccccc2c1C=C1C(=O)Nc2c(Br)cc(Br)c(C)c21 [10729/H02]	25.5%
COc1ccc(C=C2C(=O)Nc3c(Br)cc(Br)c(C)c32)c2ccccc12 [10729/H03]	2.8%
CSc1ccc(C=C2C(=O)Nc3c(Br)cc(Br)c(C)c32)cc1 [10729/H04]	25.1%
Cc1ccsc1C=C1C(=O)Nc2c(Br)cc(Br)c(C)c21 [10729/H05]	27.9%
Cc1c(Br)cc(Br)c2c1C(=Cc1cccc(Oc3ccccc3)c1)C(=O)N2 [10729/H06]	28.4%
Cc1c(Br)cc(Br)c2c1C(=Cc1ccccn1)C(=O)N2 [10729/H07]	81.0%
Cc1c(Br)cc(Br)c2c1C(=Cc1cccnc1)C(=O)N2 [10729/H08]	44.0%
Cc1c(Br)cc(Br)c2c1C(=Cc1ccncc1)C(=O)N2 [10729/H09]	45.1%
Cc1c(Br)cc(Br)c2c1C(=Cc1ccc(N3CCCC3)cc1)C(=O)N2 [10729/H10]	12.8%
Cc1c(Br)cc(Br)c2c1C(=CC1C=CCCC1)C(=O)N2 (centres unmarked) [10729/H11]	36.1%
COc1ccc(C=C2C(=O)Nc3c(Br)cc(Br)c(C)c32)c(OC)c1OC [10730/H02]	32.0%
COc1cc(OC)c(OC)cc1C=C1C(=O)Nc2c(Br)cc(Br)c(C)c21 [10730/H03]	28.3%
COc1cc(C=C2C(=O)Nc3c(Br)cc(Br)c(C)c32)cc(OC)c1OC [10730/H04]	37.1%
CC(=O)n1cc(C=C2C(=O)Nc3c(Br)cc(Br)c(C)c32)c2ccccc21 [10730/H05]	30.7%
Cc1c(Br)cc(Br)c2c1C(=Cc1ccc(-c3ccccc3Cl)o1)C(=O)N2 [10730/H07]	38.7%
Cc1c(Br)cc(Br)c2c1C(=Cc1cc3ccccc3nc1Cl)C(=O)N2 [10730/H08]	57.8%
COC1CC(C=C2C(=O)Nc3c(Br)cc(Br)c(C)c32)C(OC)O1 (centres unmarked) [10730/H10]	24.9%
Cc1cc(C=C2C(=O)Nc3c(Br)cc(Br)c(C)c32)oc1C [10730/H11]	32.6%
CCn1c2ccccc2c2cc(C=C3C(=O)Nc4c(Br)cc(Br)c(C)c43)ccc21 [10731/H02]	16.4%
Cc1cc2occ(C=C3C(=O)Nc4c(Br)cc(Br)c(C)c43)c(=O)c2cc1C [10731/H03]	23.3%
